Experimental data taken from PubChem BioAssay (NCI).
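Dose response: 5 concentrations. Exposure: 48 h. Format: 96-well plates. Endpoint: linear interpolation; highest concentration if not reached. At the GI50, growth is halved. TGI: concentration producing complete growth inhibition.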

What was measured:
Test in all cases: growth of human tumour cells (NCI), 48 h
[1] = test system: A549 NSCLC
[2] = test system: K-562 leukemia
[3] = test system: LOX IMVI melanoma
[4] = test system: MDA-MB-231 breast
[5] = test system: SNB-19 CNS
[6] = test system: SF-268 CNS
[7] = test system: 786-0 renal
[8] = test system: EKVX NSCLC
[9] = test system: A498 renal
[10] = test system: HT29 colon
[11] = test system: OVCAR-8 ovarian
[12] = test system: NCI/ADR-RES ovarian
[13] = test system: MCF7 breast
[14] = test system: SK-MEL-28 melanoma
[15] = test system: MOLT-4 leukemia
[16] = test system: OVCAR-5 ovarian
[17] = test system: NCI-H226 lung
[18] = test system: SW-620 colon
[19] = test system: HL-60(TB) leukemia
[20] = test system: SK-MEL-2 melanoma
[21] = test system: TK-10 renal
[22] = test system: OVCAR-4 ovarian
[23] = test system: HOP-92 NSCLC
[24] = test system: HCC-2998 colon
[25] = test system: HCT-15 colon
[26] = test system: SF-295 CNS
[27] = test system: U251 CNS
[28] = test system: CAKI-1 renal
[29] = test system: HOP-62 NSCLC
[30] = test system: COLO 205 colon
[31] = test system: SNB-75 CNS
[32] = test system: NCI-H460 lung
[33] = test system: HCT-116 colon
[34] = test system: MALME-3M melanoma
[35] = test system: UO-31 renal
[36] = test system: SK-MEL-5 melanoma
[37] = test system: RPMI-8226 leukemia
[38] = test system: KM12 colon
[39] = test system: CCRF-CEM leukemia
[40] = test system: NCI-H522 lung
[41] = test system: NCI-H23 lung
[42] = test system: MDA-MB-435
[43] = test system: SR leukemia
[44] = test system: T-47D breast
[45] = test system: DU-145 prostate
[46] = test system: ACHN renal
[47] = test system: RXF 393 renal
[48] = test system: UACC-62 melanoma
[49] = test system: SN12C renal
[50] = test system: PC-3 prostate
[51] = test system: HS 578T breast
[52] = test system: UACC-257 melanoma
[53] = test system: SF-539 CNS
[54] = test system: OVCAR-3 ovarian
[55] = test system: M14 melanoma
[56] = test system: BT-549 breast
[57] = test system: IGROV1 ovarian

CC(C)(C)c1ccc(NS(=O)(=O)c2ccc3nc(NC(=O)c4cnccn4)[nH]c3c2)cc1
GI50 [1]: 2580 nM
TGI [1]: 16.5 µM
GI50 [2]: 2380 nM
TGI [2]: > 100 µM
GI50 [3]: 2610 nM
TGI [3]: 15.4 µM
GI50 [4]: 4.34 µM
TGI [4]: 17.1 µM
GI50 [5]: 3.31 µM
TGI [5]: 18.3 µM
GI50 [6]: 4.29 µM
TGI [6]: 19.2 µM
GI50 [7]: 3.35 µM
TGI [7]: 14.8 µM
GI50 [8]: 5.01 µM
TGI [8]: 18.3 µM
GI50 [9]: 1750 nM
TGI [9]: 5.98 µM
GI50 [10]: 1790 nM
TGI [10]: 12.6 µM
GI50 [11]: 5.78 µM
TGI [11]: 38.8 µM
GI50 [12]: 1920 nM
TGI [12]: 8.59 µM
GI50 [13]: 715 nM
TGI [13]: 13.4 µM
GI50 [14]: 3.57 µM
TGI [14]: 17.5 µM
GI50 [15]: 5 µM
TGI [15]: 57.4 µM
GI50 [16]: 5.61 µM
TGI [16]: 19 µM
GI50 [17]: 2270 nM
TGI [17]: 8.19 µM
GI50 [18]: 2370 nM
TGI [18]: 14.4 µM
GI50 [19]: 3.67 µM
TGI [19]: 15.7 µM
GI50 [20]: 4.56 µM
TGI [20]: 19 µM
GI50 [21]: 8.84 µM
TGI [21]: 23.4 µM
GI50 [22]: 5.37 µM
TGI [22]: 19.3 µM
GI50 [23]: 1500 nM
TGI [23]: 5.92 µM
GI50 [24]: 5.19 µM
TGI [24]: 18.9 µM
GI50 [25]: 774 nM
TGI [25]: 14.6 µM
GI50 [26]: 743 nM
TGI [26]: 5.09 µM
GI50 [27]: 3.96 µM
TGI [27]: 19.6 µM
GI50 [28]: 4.64 µM
TGI [28]: 17.5 µM
GI50 [29]: 2880 nM
TGI [29]: 15.8 µM
GI50 [30]: 4.1 µM
TGI [30]: 20.9 µM
GI50 [31]: 1750 nM
TGI [31]: 6.49 µM
GI50 [32]: 2590 nM
TGI [32]: 11 µM
GI50 [33]: 3.17 µM
TGI [33]: 19.2 µM
GI50 [34]: 1060 nM
TGI [34]: 13.1 µM
GI50 [35]: 2080 nM
TGI [35]: 10.7 µM
GI50 [36]: 1070 nM
TGI [36]: 6.01 µM
GI50 [37]: 4.51 µM
TGI [37]: > 100 µM
GI50 [38]: 2160 nM
TGI [38]: 13.9 µM
GI50 [39]: 3.2 µM
TGI [39]: > 100 µM
GI50 [40]: 1640 nM
TGI [40]: 13.6 µM
GI50 [41]: 3.19 µM
TGI [41]: 15.4 µM
GI50 [42]: 346 nM
TGI [42]: 1530 nM
GI50 [43]: 680 nM
TGI [43]: > 100 µM
GI50 [44]: 4.37 µM
TGI [44]: 23.7 µM
GI50 [45]: 3.17 µM
TGI [45]: 11.5 µM
GI50 [46]: 2210 nM
TGI [46]: 7.63 µM
GI50 [47]: 1410 nM
TGI [47]: 4.28 µM
GI50 [48]: 1110 nM
TGI [48]: 13.2 µM
GI50 [49]: 3.85 µM
TGI [49]: 15.9 µM
GI50 [50]: 1650 nM
TGI [50]: 10.6 µM
GI50 [51]: 2660 nM
TGI [51]: 13.2 µM
GI50 [52]: 10.8 µM
TGI [52]: 26 µM
GI50 [53]: 1950 nM
TGI [53]: 4.96 µM
GI50 [54]: 654 nM
TGI [54]: 3.03 µM
GI50 [55]: 2420 nM
TGI [55]: 17.6 µM
GI50 [56]: 6.15 µM
TGI [56]: 22.3 µM
GI50 [57]: 1490 nM
TGI [57]: 13.9 µM
